Patent US20100189648A1, “INHIBITORS FOR DISRUPTING THE INTERACTION OF UBIQUITINATION RELATED ENZYMES AND USES THEREOF” (priority 2006, published 2010)
Converted amounts (≈) assume the structure as drawn. “And” between values parts separate entries of the source, which are not always exact repeats. Equal values may be shown once. Read-outs that look alike come from different tables or passages of the source.

Tests used:
Format in all cases: cell-based, human
MCF-7 = assay: MTT survival assay, breast cancer cell line (MCF-7); conditions: for IC50: Homo sapiens
How it was run: (§1)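 Read-out: A570 of DMSO-solubilized formazan after 4 h with 1 mg/ml MTT. Preceding step: 68 h compound exposure at 37 C of cells plated a day earlier in 10% FBS medium. Growth inhibition rate relative to negative control; IC50 (95% confidence) via Bliss.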

Hela cells = assay: MTT survival assay, cervical cancer line (Hela cells); conditions: for IC50: Homo sapiens
How it was run: as §1

A459 = assay: MTT survival assay, lung cancer cell line (A459); conditions: A459 Experiment #2; for IC50: Homo sapiens
How it was run: as §1

U251 = assay: MTT survival assay, glioma cell line (brain tumor U251); conditions: U251 (second table)
How it was run: as §1

HCT116 = assay: MTT survival assay, colon cancer cell line (HCT116); conditions: for IC50: Homo sapiens
Experimental: The effect of the above identified compounds on anti-tumor activity in human carcinoma cells was determined by the MTT survival assay. The MTT assay is a commonly used method in evaluation of cell survival, based on the ability of viable cells to convert MTT (MTT, Sigma, Cat No. 044K5307), a soluble tetrazolium salt [3-(4,5-dimethylthuazole-2-yl)-2,5 diphenyl tetrazolium bromide], into an insoluble formazan precipitate, which is quantitated by spectrophotometry following solubilization in dimethyl sulfoxide (DMSO).
In brief, different carcinoma cells were treated with negative control, various test articles at different concentration, and positive control (DDP), in 96-well tissue culture dishes. Each test article at different concentration is repeated 3 times.
Different carcinoma cells were diluted with 10% FBS and RPM1640 or MEM media to a concentration of 3-5×10^4 per ml suspension. 100 microliter of cells were incubated in each well in 96-well tissue culture dishes at 37 C. The cells were incubated at 37 C on the first day. On the second day, media supernatant was removed and replaced with media and different concentration of test articles (100 microliter in each well). Three Negative control wells and three positive control (DDP) wells were also included. The 96-well plate were incubated at 37 C for another 68 hours. After 68 hours, supernatant of each well was removed. 100 microliter of 1 mg/ml MTT diluted in PBS was injected into each well. The cells were incubated at 37 C for another 4 hours. The cells were then solubilized in 150 microliter DMSO, mixed for 10 minutes and absorbance readings were taken using Microplate reader Bio-Rad Model 550 at 570 nm. IR (cell growth inhibition rate) % was calculated as (OD570 of negative control-OD570 with test article)/OD570 of negative control. IC50 (cell 50% inhibition concentration) at 95% confidence level was calculated with Bliss method.

SMMC-7721 = assay: MTT survival assay, liver cancer cell line (SMMC-7721); conditions: SMMC-7721 Experiment #2; for IC50: Homo sapiens
How it was run: as §1

SKOV3 = assay: MTT survival assay, ovarian cancer cell line (SKOV3); conditions: SKOV3 (second table)
How it was run: as §1

[1] = 95% confidence limits of IC50, read-out: IC50 (95% confidence level), interval
[2] = Bliss method, unit not printed (concentrations in μg/ml), read-out: IC50 (95% confidence level)

O=C(CSc1cc(COc2ccc(Br)cc2)[nH]n1)c1ccccc1 [Mol 21]
IR (%) (MCF-7; 3.125 μg/ml): 12.5%
OD(A570 nm) (MCF-7; 3.125 μg/ml): 0.789 ± 0.064
IR (%) (MCF-7; 6.25 μg/ml): 30.9%
OD(A570 nm) (MCF-7; 6.25 μg/ml): 0.624 ± 0.008
IR (%) (MCF-7; 12.5 μg/ml): 61.6%
OD(A570 nm) (MCF-7; 12.5 μg/ml): 0.346 ± 0.022
IR (%) (MCF-7; 25 μg/ml): 89.1%
OD(A570 nm) (MCF-7; 25 μg/ml): 0.098 ± 0.006
IR (%) (MCF-7; 50 μg/ml): 92.4%
OD(A570 nm) (MCF-7; 50 μg/ml): 0.069 ± 0.006
IR (%) (MCF-7; 100 μg/ml): 92.1%
OD(A570 nm) (MCF-7; 100 μg/ml): 0.072 ± 0.007
IC50 (MCF-7; MCF7, 95% confidence limits of IC50, read-out: IC50 (95% confidence level), interval): 8.53 to 11.4 µg/mL (≈ 21.2 to 28.4 µM)
IC50 (MCF-7; MCF7, Bliss method, unit not printed (concentrations in μg/ml), read-out: IC50 (95% confidence level)): 9.93 µg/mL (≈ 24.6 µM)
IR (%) (Hela cells; 0.41 μg/ml): 10.0%
OD(A570 nm) (Hela cells; 0.41 μg/ml): 0.668 ± 0.049
OD(A570 nm) (Hela cells; 1.23 μg/ml): 0.785 ± 0.081
OD(A570 nm) (Hela cells; 3.70 μg/ml): 0.774 ± 0.066
IR (%) (Hela cells; 11.11 μg/ml): 35.4%
OD(A570 nm) (Hela cells; 11.11 μg/ml): 0.480 ± 0.035
IR (%) (Hela cells; 33.33 μg/ml): 73.8%
OD(A570 nm) (Hela cells; 33.33 μg/ml): 0.194 ± 0.031
IR (%) (Hela cells; 100 μg/ml): 82.5%
OD(A570 nm) (Hela cells; 100 μg/ml): 0.130 ± 0.039
IC50 (Hela cells; [1]): 18.8 to 26.4 µg/mL (≈ 46.6 to 65.6 µM)
IC50 (Hela cells; [2]): 22.2 µg/mL (≈ 55.1 µM)
IR (%) (A459; 3.125 μg/ml): −0.7%
OD(A570 nm) (A459; 3.125 μg/ml): 0.642 ± 0.073
IR (%) (A459; 6.25 μg/ml): −3.9%
OD(A570 nm) (A459; 6.25 μg/ml): 0.662 ± 0.031
IR (%) (A459; 12.5 μg/ml): 56.2%
OD(A570 nm) (A459; 12.5 μg/ml): 0.279 ± 0.014
IR (%) (A459; 25 μg/ml): 81.5%
OD(A570 nm) (A459; 25 μg/ml): 0.118 ± 0.027
IR (%) (A459; 50 μg/ml): 89.2%
OD(A570 nm) (A459; 50 μg/ml): 0.069 ± 0.010
IR (%) (A459; 100 μg/ml): 87.1%
OD(A570 nm) (A459; 100 μg/ml): 0.082 ± 0.015
IC50 (A459; [1]): 6.3 to 7.13 µg/mL (≈ 15.6 to 17.7 µM)
IC50 (A459; [2]): 6.72 µg/mL (≈ 16.7 µM)
IC50 (U251; Homo sapiens, U-251, Bliss method, unit not printed (concentrations in μg/ml), read-out: IC50 (95% confidence level)): 16.2 µg/mL (≈ 40.3 µM)
IR (%) (U251; 3.125 μg/ml): 4.2%
OD(A570 nm) (U251; 3.125 μg/ml): 0.840 ± 0.013
IR (%) (U251; 6.25 μg/ml): 18.0%
OD(A570 nm) (U251; 6.25 μg/ml): 0.719 ± 0.110
IR (%) (U251; 12.5 μg/ml): 42.8%
OD(A570 nm) (U251; 12.5 μg/ml): 0.501 ± 0.058
IR (%) (U251; 25 μg/ml): 73.5%
OD(A570 nm) (U251; 25 μg/ml): 0.232 ± 0.034
IR (%) (U251; 50 μg/ml): 86.2%
OD(A570 nm) (U251; 50 μg/ml): 0.121 ± 0.019
IR (%) (U251; 100 μg/ml): 89.2%
OD(A570 nm) (U251; 100 μg/ml): 0.094 ± 0.007
IR (%) (HCT116; 3.125 μg/ml): 56.2% and 30.4%
OD(A570 nm) (HCT116; 6.25 μg/ml): 0.300 ± 0.050 and 0.394 ± 0.039
OD(A570 nm) (HCT116; 12.5 μg/ml): 0.150 ± 0.025 and 0.267 ± 0.035
IR (%) (HCT116; 25 μg/ml): 80.0% and 81.3%
OD(A570 nm) (HCT116; 25 μg/ml): 0.109 ± 0.006 and 0.101 ± 0.020
OD(A570 nm) (HCT116; 50 μg/ml): 0.083 ± 0.011 and 0.085 ± 0.004
IR (%) (HCT116; 100 μg/ml): 84.1% and 84.7%
OD(A570 nm) (HCT116; 100 μg/ml): 0.086 ± 0.012 and 0.083 ± 0.001
IC50 (HCT116; HCT-116, 95% confidence limits of IC50, read-out: IC50 (95% confidence level), interval): 2.99 to 3.33 µg/mL (≈ 7.42 to 8.26 µM)
IC50 (HCT116; HCT-116, Bliss method, unit not printed (concentrations in μg/ml), read-out: IC50 (95% confidence level)): 3.16 µg/mL (≈ 7.84 µM)
IC50 (SMMC-7721; [1]): 9.32 to 9.71 µg/mL (≈ 23.1 to 24.1 µM)
IC50 (SMMC-7721; [2]): 9.52 µg/mL (≈ 23.6 µM)
IR (%) (SMMC-7721; 3.125 μg/ml): −49.9%
OD(A570 nm) (SMMC-7721; 3.125 μg/ml): 0.690 ± 0.603
IR (%) (SMMC-7721; 6.25 μg/ml): 65.1%
OD(A570 nm) (SMMC-7721; 6.25 μg/ml): 0.161 ± 0.085
IR (%) (SMMC-7721; 12.5 μg/ml): 68.3%
OD(A570 nm) (SMMC-7721; 12.5 μg/ml): 0.146 ± 0.041
IR (%) (SMMC-7721; 25 μg/ml): 72.0%
OD(A570 nm) (SMMC-7721; 25 μg/ml): 0.129 ± 0.006
IR (%) (SMMC-7721; 50 μg/ml): 82.9%
OD(A570 nm) (SMMC-7721; 50 μg/ml): 0.079 ± 0.005
IR (%) (SMMC-7721; 100 μg/ml): 83.2%
OD(A570 nm) (SMMC-7721; 100 μg/ml): 0.077 ± 0.009
IC50 (SKOV3; Homo sapiens, SK-OV-3, Bliss method, unit not printed (concentrations in μg/ml), read-out: IC50 (95% confidence level)): 17.7 µg/mL (≈ 43.9 µM)
IR (%) (SKOV3; 3.125 μg/ml): 28.2%
OD(A570 nm) (SKOV3; 3.125 μg/ml): 0.503 ± 0.031
IR (%) (SKOV3; 6.25 μg/ml): 24.1%
OD(A570 nm) (SKOV3; 6.25 μg/ml): 0.532 ± 0.025
IR (%) (SKOV3; 12.5 μg/ml): 34.3%
OD(A570 nm) (SKOV3; 12.5 μg/ml): 0.460 ± 0.195
IR (%) (SKOV3; 25 μg/ml): 38.8%
OD(A570 nm) (SKOV3; 25 μg/ml): 0.429 ± 0.002
IR (%) (SKOV3; 50 μg/ml): 83.0%
OD(A570 nm) (SKOV3; 50 μg/ml): 0.119 ± 0.010
IR (%) (SKOV3; 100 μg/ml): 89.1%
OD(A570 nm) (SKOV3; 100 μg/ml): 0.077 ± 0.011
